Test results as given in patent US11180484B2, “Pyrazole derivatives as plasma kallikrein inhibitors” (KALVISTA PHARMACEUTICALS LIMITED, priority 2016, dated 2021).
In brackets after ≈: the same amount, converted by molar mass. Read-outs that look alike come from different tables or passages of the source.

Tests used:
[1] = In vitro permeability, Caco-2 model for oral absorption; assay type: in vitro ADME; details: human, apical to basolateral, 50 μM test compound, 37° C.
Method in brief: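 Caco-2 monolayers grown on collagen inserts for 3 days, with 50 μM compound added apically and incubated 1 hour at 37° C with shaking. Apical-to-basolateral transport measured by LCMS in both compartments. Monolayer integrity checked by TEER before and after, and by Lucifer Yellow flux.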

[2] = Predicted plasma clearance (Clp), well-stirred model, human; assay type: in vitro ADME; details: percentage of hepatic blood flow
Experimental: (§1) The predicted plasma clearance (Clp) is calculated using the well-stirred model (Rowland M, Benet L Z, and Graham G G. Clearance concepts in pharmacokinetics. J Pharmacokinet Biopharm. (1973) 1:123-136.), one of several models that can be used to extrapolate the in vitro data. The model assumes instantaneous and complete mixing of drug within the liver and is a function of intrinsic clearance, hepatic blood flow and free fraction of drug in the blood. The predicted plasma clearance in mL/min/kg is presented as a percentage of hepatic blood flow (LBF).

Human KLK1 = Human KLK1 (Homo sapiens (Human), UniProt P06870); experiment: Determination of the IC50 for KLK1; assay type: biochemical; details: 25° C., substrate H-DVal-Leu-Arg-AFC
Chain of Human KLK1 (P06870 25-262): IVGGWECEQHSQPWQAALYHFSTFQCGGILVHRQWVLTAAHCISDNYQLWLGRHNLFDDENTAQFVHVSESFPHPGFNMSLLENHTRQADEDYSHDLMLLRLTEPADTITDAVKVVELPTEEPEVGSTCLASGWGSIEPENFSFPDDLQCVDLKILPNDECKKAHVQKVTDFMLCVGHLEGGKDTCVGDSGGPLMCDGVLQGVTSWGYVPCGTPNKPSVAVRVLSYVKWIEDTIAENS
Experimental: Human KLK1 (Callbiochem) was incubated at 25° C. with the fluorogenic substrate H-DVal-Leu-Arg-AFC and various concentrations of the test compound. Residual enzyme activity (initial rate of reaction) was determined by measuring the change in […] at 410 nm and the IC50 value for the test compound was determined.

thrombin = thrombin (Homo sapiens (Human), UniProt P00734); experiment: Determination of enzyme selectivity: thrombin; assay type: biochemical; details: substrate at Km concentration
Experimental: (§3) Human serine protease enzymes plasmin, thrombin and trypsin were assayed for enzymatic activity using an appropriate fluorogenic substrate. Protease activity was measured by monitoring the accumulation of liberated fluorescence from the substrate over 5 minutes. The linear rate of fluorescence increase per minute was expressed as percentage (%) activity. The Km for the cleavage of each substrate was determined by standard transformation of the Michaelis-Menten equation.

plasmin = plasmin (Homo sapiens (Human), UniProt P00747); experiment: Determination of enzyme selectivity: plasmin; assay type: biochemical; details: substrate at Km concentration
Chain of plasmin (P00747 581-810): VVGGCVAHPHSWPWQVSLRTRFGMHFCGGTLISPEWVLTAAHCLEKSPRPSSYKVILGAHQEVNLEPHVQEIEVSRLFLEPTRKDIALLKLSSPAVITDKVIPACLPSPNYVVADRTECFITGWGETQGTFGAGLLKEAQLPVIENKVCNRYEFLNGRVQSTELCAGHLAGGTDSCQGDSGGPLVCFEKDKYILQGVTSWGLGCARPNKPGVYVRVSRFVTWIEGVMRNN
Chain of plasmin (P00747 97-580): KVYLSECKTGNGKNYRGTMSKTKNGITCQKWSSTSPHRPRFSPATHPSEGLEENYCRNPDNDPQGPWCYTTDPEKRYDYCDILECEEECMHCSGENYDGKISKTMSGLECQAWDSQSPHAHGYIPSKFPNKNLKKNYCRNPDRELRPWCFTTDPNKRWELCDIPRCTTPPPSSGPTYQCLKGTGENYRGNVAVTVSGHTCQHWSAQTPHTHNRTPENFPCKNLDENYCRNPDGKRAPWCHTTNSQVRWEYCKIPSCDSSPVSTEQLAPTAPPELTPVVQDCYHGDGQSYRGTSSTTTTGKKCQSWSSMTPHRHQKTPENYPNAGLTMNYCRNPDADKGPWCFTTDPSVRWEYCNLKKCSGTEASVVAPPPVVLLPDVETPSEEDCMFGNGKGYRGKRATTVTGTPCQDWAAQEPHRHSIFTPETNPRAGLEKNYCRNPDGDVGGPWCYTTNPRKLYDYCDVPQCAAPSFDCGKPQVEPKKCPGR
Experimental: as §3

[3] = Predicted plasma clearance (Clp), well-stirred model, rat; assay type: in vitro ADME; details: percentage of hepatic blood flow
Experimental: as §1

[4] = Plasma protein binding (PPB), rapid equilibrium dialysis, rat plasma; assay type: in vitro ADME; details: 5 μM test compound, dialysis 5 hrs at 37° C.
Experimental: The fraction unbound in plasma was determined using ThermoScientific™ Pierce™ Rapid Equilibrium Dialysis Technology (Single-Use plate with inserts, 8K MWCO). 5 μM test compound was spiked into human or rat plasma (300 μL) and dialysed against 146.5 mM phosphate buffer (500 μL) for 5 hrs at 37° C., shaking at 1200 rpm. Reference samples from the non-dialysed plasma were taken before the incubation to enable an assessment of recovery. Test compound concentrations were determined in plasma and buffer compartments by LCMS against a calibration curve. The fraction unbound in plasma was determined using standard methodology (Waters N J et al (2008) J Pharm Sci 97(10); 4586-95). Results are presented as percent plasma protein bound (% PPB).

[5] = Intrinsic clearance in human liver microsomes; assay type: in vitro ADME; details: human liver microsomes 0.5 mg/mL, 5 μM test compound, 37° C.; read-out: Human liver microsome (Clint μL/min/mg protein)
Experimental: (§2) Rat or human liver microsomes (0.5 mg/mL; Corning) were incubated with 5 μM test compound at 37° C. on a shaking platform (150 rpm). Samples were taken at 0, 6, 12, 18, 24 and 60 min and test compound concentrations were determined by LCMS against a calibration curve.

[6] = Solubility in water and 0.1N HCl (aq); assay type: physicochemical; details: thermodynamic from solid, incubated at 1 mg/mL, 37° C.
Experimental: Solubility was determined in water and 0.1N HCl (aq). Test compounds were incubated at 1 mg/mL for 24 hrs at 37° C. on a shaking platform (500 rpm). Samples were taken at 1, 4 and 24 hrs and centrifuged at 15,000 g for 10 min. Test compound concentration in the supernatant was determined by LCMS against a standard curve.

Human FXIa = Human FXIa (Homo sapiens (Human), UniProt P03951); experiment: Determination of the % inhibition / IC50 for FXIa; assay type: biochemical; details: for inhibition at 40 µM: 40 μM test compound, read-out: % Inhibition @ 40 μM (human FXIa); for IC50: 25° C., substrate Z-Gly-Pro-Arg-AFC
Chain of Human FXIa (P03951 388-625): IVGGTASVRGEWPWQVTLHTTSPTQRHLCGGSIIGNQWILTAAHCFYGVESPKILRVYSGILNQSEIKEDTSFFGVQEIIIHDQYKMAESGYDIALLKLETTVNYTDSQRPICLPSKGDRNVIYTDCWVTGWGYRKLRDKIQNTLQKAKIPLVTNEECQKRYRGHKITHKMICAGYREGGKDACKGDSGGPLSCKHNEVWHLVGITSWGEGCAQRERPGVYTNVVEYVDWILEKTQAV
Chain of Human FXIa (P03951 19-387): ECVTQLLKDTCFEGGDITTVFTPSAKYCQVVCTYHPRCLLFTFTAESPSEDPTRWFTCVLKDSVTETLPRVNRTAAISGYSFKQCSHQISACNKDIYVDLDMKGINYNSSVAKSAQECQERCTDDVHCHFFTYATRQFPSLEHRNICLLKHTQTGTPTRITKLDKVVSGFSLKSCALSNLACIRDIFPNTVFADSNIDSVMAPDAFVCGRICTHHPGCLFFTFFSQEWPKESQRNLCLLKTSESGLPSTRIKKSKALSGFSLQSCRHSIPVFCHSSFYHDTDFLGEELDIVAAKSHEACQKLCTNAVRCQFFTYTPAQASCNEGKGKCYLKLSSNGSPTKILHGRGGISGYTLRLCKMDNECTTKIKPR
Experimental: FXIa inhibitory activity in vitro was determined using standard published methods (see e.g. Johansen et al., Int. J. Tiss. Reac. 1986, 8, 185; Shori et al., Biochem. Pharmacol., 1992, 43, 1209; Sturzebecher et al., Biol. Chem. Hoppe-Seyler, 1992, 373, 1025). […]

[7] = Intrinsic clearance in rat liver microsomes; assay type: in vitro ADME; details: rat liver microsomes 0.5 mg/mL, 5 μM test compound, 37° C.; read-out: rat liver microsome (Clint μL/min/mg protein)
Experimental: as §2

Human Factor XIIa = Human Factor XIIa (Homo sapiens (Human), UniProt P00748); experiment: Factor XIIa inhibitory activity in vitro; assay type: biochemical; details: 25° C., substrate H-DPro-Phe-Arg-AFC; read-out: IC50 (human FXIIa)
Chain of Human Factor XIIa (P00748 373-615): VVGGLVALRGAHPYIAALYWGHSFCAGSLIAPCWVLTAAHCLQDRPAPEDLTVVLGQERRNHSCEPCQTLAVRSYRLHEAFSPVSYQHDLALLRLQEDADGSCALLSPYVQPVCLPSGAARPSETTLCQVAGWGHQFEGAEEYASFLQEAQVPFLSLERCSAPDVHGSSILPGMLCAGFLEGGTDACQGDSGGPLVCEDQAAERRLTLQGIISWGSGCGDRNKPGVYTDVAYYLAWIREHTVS
Experimental: Human Factor XIIa (Enzyme Research Laboratories) was incubated at 25° C. with the fluorogenic substrate H-DPro-Phe-Arg-AFC and various concentrations of the test compound. Residual enzyme activity (initial rate of reaction) was determined by measuring the change in […] at 410 nm and the IC50 value for the test compound was determined.

Human plasma kallikrein [8] = target: T1, Human plasma kallikrein (Homo sapiens (Human), UniProt P03952); experiment: Determination of the IC50 for plasma kallikrein; assay type: biochemical; details: 25° C., substrate H-DPro-Phe-Arg-AFC; read-out: IC50 (human PKal)
T1 sequence (P03952 391-638): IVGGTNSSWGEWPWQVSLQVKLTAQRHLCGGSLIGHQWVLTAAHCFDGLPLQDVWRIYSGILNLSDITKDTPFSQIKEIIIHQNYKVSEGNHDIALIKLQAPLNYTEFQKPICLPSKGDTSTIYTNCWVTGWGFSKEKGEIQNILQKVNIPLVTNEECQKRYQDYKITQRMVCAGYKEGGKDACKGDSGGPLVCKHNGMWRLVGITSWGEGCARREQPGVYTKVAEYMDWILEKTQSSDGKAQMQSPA
T1 sequence (P03952 20-390): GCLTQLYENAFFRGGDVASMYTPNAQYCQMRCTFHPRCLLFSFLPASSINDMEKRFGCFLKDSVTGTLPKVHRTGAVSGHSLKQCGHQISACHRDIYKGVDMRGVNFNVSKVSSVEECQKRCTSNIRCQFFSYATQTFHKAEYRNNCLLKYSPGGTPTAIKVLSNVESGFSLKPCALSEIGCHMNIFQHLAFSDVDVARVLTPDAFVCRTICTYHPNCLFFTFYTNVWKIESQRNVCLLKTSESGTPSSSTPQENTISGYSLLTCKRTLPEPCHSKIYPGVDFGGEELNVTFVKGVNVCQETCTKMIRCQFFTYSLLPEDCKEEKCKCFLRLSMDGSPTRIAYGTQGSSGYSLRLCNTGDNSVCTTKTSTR
Experimental: Human plasma kallikrein (Protogen) was incubated at 25° C. with the fluorogenic substrate H-DPro-Phe-Arg-AFC and various concentrations of the test compound. Residual enzyme activity (initial rate of reaction) was determined by measuring the change in […] at 410 nm and the IC50 value for the test compound was determined.

[9] = Plasma protein binding (PPB), rapid equilibrium dialysis, human plasma; assay type: in vitro ADME; details: 5 μM test compound, dialysis 5 hrs at 37° C.
Experimental: The fraction unbound in plasma was determined using ThermoScientific™ Pierce™ Rapid Equilibrium Dialysis Technology (Single-Use plate with inserts, 8K MWCO). […] Reference samples from the non-dialysed plasma were taken before the incubation to enable an assessment of recovery. Test compound concentrations were determined in plasma and buffer compartments by LCMS against a calibration curve. […] Results are presented as percent plasma protein bound (% PPB).

trypsin = experiment: Determination of enzyme selectivity: trypsin; assay type: biochemical, human; details: substrate at Km concentration
Experimental: as §3

Human plasma kallikrein [10] = target: T1, Human plasma kallikrein; experiment: Determination of the Ki for plasma kallikrein (mixed-model inhibition); assay type: biochemical; details: for Ki: human plasma kallikrein, mixed-model inhibition equation; for Alpha: parameter of the mixed-model equation indicating mechanism of inhibition
[11] = simulated gastric fluid, 0.1N HCl (aq), read-out: Solubility 0.1N HCl (aq)
[12] = water, read-out: Solubility Water

SMILES | Papp at 1 h, 50 μM [1] [×10⁻⁶ cm/s] | Predicted in vivo human Clp (% LBF) [2] [% LBF] | IC50 (Human KLK1) [µM] | IC50 (thrombin) [µM] | IC50 (plasmin) [µM] | Predicted in vivo rat Clp (% LBF) [3] [% LBF] | fraction unbound at 5 h, 5 μM [4] | microsomal CLint at 5 μM [5] [µL/min/mg] | solubility [6, 11] [µg/mL] | solubility [6, 12] [µg/mL] | inhibition at 40 µM (Human FXIa) [%] | IC50 (Human FXIa) [µM] | microsomal CLint at 5 μM [7] [µL/min/mg] | IC50 (Human Factor XIIa) [µM] | IC50 (Human plasma kallikrein [8]) [µM] | fraction unbound at 5 h, 5 μM [9] | IC50 (trypsin) [µM] | Ki (Human plasma kallikrein [10]) [µM] | Alpha (Human plasma kallikrein [10]) | inhibition at 12.7 µM (Human FXIa; 12.7 μM test compound) [%]
COc1ccc(F)c(CNC(=O)c2cn(Cc3ccc(Cn4ccccc4=O)cc3)nc2N)c1F [Example 35, 3-amino-N-[(2,6-difluoro-3-methoxyphenyl)methyl]-1-({4-[(2-oxopyridin-1-yl)methyl]phenyl}methyl)pyrazole-4-carboxamide] | 7 | 7 | > 40 | > 40 | > 40 | 1 | 0.01 | 24 | 40 (≈ 83.4 µM) | 20 (≈ 41.7 µM) | 5 | > 40 | 15 | > 40 | 0.0017 | 0.04 | > 40 |  |  | 
COc1ccc(C#N)c(CNC(=O)c2cn(Cc3ccc(Cn4ccccc4=O)cc3)nc2N)c1F [Example 43, 3-amino-N-[(6-cyano-2-fluoro-3-methoxyphenyl)methyl]-1-({4-[(2-oxopyridin-1-yl)methyl]phenyl}methyl)pyrazole-4-carboxamide] | 2 | 8 | > 4 | > 40 | > 40 | 2 | 0.08 | 10 |  |  | 27 | > 40 | 5 | > 4 | 0.0006 | 0.12 | > 40 |  |  | 
COCc1nn(Cc2ccc(Cn3cc(F)ccc3=O)cc2)cc1C(=O)NCc1c(C#N)ccc(OC)c1F [Example 53, N-[(6-cyano-2-fluoro-3-methoxyphenyl)methyl]-1-({4-[(5-fluoro-2-oxopyridin-1-yl)methyl]phenyl}methyl)-3-(methoxymethyl)pyrazole-4-carboxamide] | 13 | 35 | > 40 | > 40 | > 40 | 10 | 0.04 | 104 |  |  | 5 | > 40 | 77 | > 40 | 0.0017 | 0.1 | > 40 |  |  | 

More lines, now with the values ahead:

Papp at 1 h, 50 μM [1] [×10⁻⁶ cm/s] | Predicted in vivo human Clp (% LBF) [2] [% LBF] | IC50 (Human KLK1) [µM] | IC50 (thrombin) [µM] | IC50 (plasmin) [µM] | Predicted in vivo rat Clp (% LBF) [3] [% LBF] | fraction unbound at 5 h, 5 μM [4] | microsomal CLint at 5 μM [5] [µL/min/mg] | solubility [6, 11] [µg/mL] | solubility [6, 12] [µg/mL] | inhibition at 40 µM (Human FXIa) [%] | IC50 (Human FXIa) [µM] | microsomal CLint at 5 μM [7] [µL/min/mg] | IC50 (Human Factor XIIa) [µM] | IC50 (Human plasma kallikrein [8]) [µM] | fraction unbound at 5 h, 5 μM [9] | IC50 (trypsin) [µM] | Ki (Human plasma kallikrein [10]) [µM] | Alpha (Human plasma kallikrein [10]) | inhibition at 12.7 µM (Human FXIa; 12.7 μM test compound) [%] | SMILES
5 | 17 | > 40 | > 40 | > 40 | 14 | 0.13 | 22 |  |  | 20 | > 40 | 47 | > 40 | 0.0004 | 0.24 | > 40 | 0.0001 | 2.2 |  | COCc1nn(Cc2ccc(Cn3ccccc3=O)cc2)cc1C(=O)NCc1cc(OC)ccc1-n1cnnn1 [Example 40, N-{[5-methoxy-2-(1,2,3,4-tetrazol-1-yl)phenyl]methyl}-3-(methoxymethyl)-1-({4-[(2-oxopyridin-1-yl)methyl]phenyl}methyl)pyrazole-4-carboxamide]
6 | 14 | > 4 | 39.2 | > 40 | 12 | 0.06 | 32 | 46 (≈ 84.4 µM) | 46 (≈ 84.4 µM) |  | 10.6 | 72 | > 4 | 0.0007 | 0.1 | > 40 | 0.00016 | 6.0 | 53 | COCc1nn(Cc2ccc(Cn3ccccc3=O)cc2)cc1C(=O)NCc1cc(Cl)ccc1-n1cnnn1 [Example 72, N-{[5-chloro-2-(1,2,3,4-tetrazol-1-yl)phenyl]methyl}-3-(methoxymethyl)-1-({4-[(2-oxopyridin-1-yl)methyl]phenyl}methyl)pyrazole-4-carboxamide]
